Laboratory results taken from patent publication US11396503B2, “Sulfonyl substituted bicyclic compound which acts as ROR inhibitor” (CHIA TAI TIANQING PHARMACEUTICAL GROUP CO., LTD, priority 2017, dated 2022).

Molecular target: T1, hRORγt (Homo sapiens, UniProt P51449)
T1 construct: expressed in transfected cells; host or cells: CHO-S (Chinese hamster ovary cells, Invitrogen R80007), transiently transfected with pM-hRORγt and pG5-luc
T1 sequence (P51449 1-497 isoform P51449-2): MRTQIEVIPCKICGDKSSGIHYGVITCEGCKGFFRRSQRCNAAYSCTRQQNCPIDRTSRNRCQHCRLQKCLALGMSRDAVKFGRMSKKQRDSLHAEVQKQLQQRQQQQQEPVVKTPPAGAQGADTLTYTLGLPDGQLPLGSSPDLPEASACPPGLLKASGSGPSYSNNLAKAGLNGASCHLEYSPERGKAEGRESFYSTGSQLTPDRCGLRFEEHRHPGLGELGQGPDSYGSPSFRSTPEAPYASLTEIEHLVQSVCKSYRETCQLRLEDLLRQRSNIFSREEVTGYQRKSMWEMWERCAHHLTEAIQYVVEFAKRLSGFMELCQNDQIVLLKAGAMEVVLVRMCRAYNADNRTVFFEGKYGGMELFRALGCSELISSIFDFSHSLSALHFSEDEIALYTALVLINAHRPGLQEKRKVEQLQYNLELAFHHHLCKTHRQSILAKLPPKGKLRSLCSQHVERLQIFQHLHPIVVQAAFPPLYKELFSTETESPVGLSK
Test: Luciferase assay (reporter gene, recombinant plasmid hRORγt)
Assay type: cell-based
Details: CHO-S cells transfected with pM-hRORγt and pG5-luc; overnight culture with compound; ONE-Glo luciferase readout; read-out: RORgt EC50
Excerpt: This assay method used luciferase as a reporter gene to detect the expression of cells transfected with a gene recombinant plasmid at gene transcription level, wherein the recombinant plasmid was constructed by the promoter of a target gene and a luciferase gene. The experiment was primarily related to the transfection of the recombinant plasmid hRORγt (“RORgt”).
I. Reagents and Materials:
1. Cells: Chinese hamster ovary cells (CHO—S, Invitrogen, Cat #R80007), suspension-cultured in CD-CHO culture medium containing 8 mM L-glutamine and 1×HT.
a) Luciferase reporter gene plasmid pG5-luc: reporter plasmid (Promega).
b) Target gene plasmid pM-hRORγt: human RORgamma.
4. Transfection reagent: TransIT-CHO transfection kit (Minis Bio Co.) containing Trans-It reagent and Mojo reagent (Minis, MIR2170).
7. Luciferase kit: (Promega ONE-Glo, 100 ml, Catalog #E6120): containing luciferase substrate (Coenzyme A, ATP and luciferin) and a reaction buffer.
II. Specific Experimental Steps
1. Cell seeding: 18 to 24 h before transfection, a 125 mL shake flask was charged with CHO—S cells having a concentration of 0.5×10^6 cells/mL to 0.6×10^6 cells/mL, and CD-CHO culture medium (the culture medium only contained L-glutamine and an HT supplement) was added thereto to a final volume of 18 mL. The shake flask was placed on a shaker, and the cells were passaged overnight under a condition of 120 rpm, 37° C. and 8% CO2.
2. Cell transfection: At this time, the cell concentration of the above-mentioned solution should be 1.2×10^6 cells/mL to 1.5×10^6 cells/mL. CD-CHO culture medium (containing L-glutamine and an HT supplement) was used for dilution until the cell concentration reached 1×10^6 cells/mL.
B. Preparation of transfection reagent (TransIT-CHO: Mojo: DNA complex), which was formulated immediately before transfection.
1. Trans-IT reagent was warmed to room temperature in advance and shaken to be uniformly mixed before use.
2. Preparation for DNA transfection: the following reagents were mixed in a 1.5 mL sterile centrifuge tube:
27 μg of luciferase reporter gene plasmid pG5-luc: 27 μL, 1 mg/mL solution,
0.75 μg of the expression plasmid of the target gene (pM-hRORγt, 7.5 μL, 0.1 mg/mL solution).
3. The following reagents were charged into a 15 mL sterile centrifuge tube:
83 μL of TransIT-CHO reagent
the DNA complex prepared in step 2
4. The mixture was mixed well and placed at room temperature for 5 min.
5. 13.9 μL of Mojo reagent was charged into a sterile centrifuge tube, mixed slightly, and placed at room temperature for 20 min to form a transfection complex.
1. A 125 mL shake flask was charged with the transfection complex prepared in step B dropwise while being shaken slowly.
2. The cells were cultured for 4 h in a shaker under a condition of 37° C. and 8% carbon dioxide.
3. After 4 h, the cells were transferred to a 50 mL sterile centrifuge tube, centrifuged at 1200 rpm for 4 min, and the supernatant was aspirated.
4. The cells were re-suspended in 6 mL of a freezing medium (CD-CHO, L-glutamine, HT supplement, and 10% DMSO), and the cell density should be 3×10^6 cells/ml at this time.
5. The mixture was dispensed into 12 tubes with 0.5 mL in each tube. The tubes were placed in a refrigerator at −80° C. to be slowly frozen overnight, and then were transferred into liquid nitrogen for long-term storage.
D. Luciferase activity assay (96-well flat plate)
1. The cells were thawed at 37° C.
2. The cells (1.5×10^6 cells/0.5 mL) were diluted with 2 mL of freshly formulated culture medium (CD-CHO, L-glutamine and an HT supplement) to a volume of 2.5 mL, and then were transferred to a 15 mL sterile centrifuge tube.
3. Cell counting: If the cells were completely viable, a concentration of 6×10^5 cells/mL should be achieved. […] If necessary, the cells were diluted with culture medium.
4. Cell seeding: 100 μl cells (4×10^4 cells) were added to each well.

| Structure (SMILES) | EC50 |
| --- | --- |
| CCCc1ccc2c(c1)CCC(C)N2S(=O)(=O)c1ccc(OCC2CCOCC2)c(CO)c1 (stereo not shown) | 17900 pM |
| CCc1ccc2c(c1)CCC(C1CCC1)N2S(=O)(=O)c1ccc(OCC2CCOCC2)c(CO)c1 (stereo not shown) | 8100 pM |
| CC1CCc2cc(C#N)ccc2N1S(=O)(=O)c1ccc(OCC2CCOCC2)c(CO)c1 (stereo not shown) | 689000 pM |
| CCc1ccc2c(c1)CCC(CC)N2S(=O)(=O)c1ccc(OCC2CCOCC2)c(CO)c1 (stereo not shown) | 11000 pM |
| CCc1ccc2c(c1)CC(CC)CN2S(=O)(=O)c1ccc(OCC2CCOCC2)c(CO)c1 (stereo not shown) | 31600 pM |
| C[C@H]1CCc2cc(C(C)(F)F)ccc2N1S(=O)(=O)c1ccc(OCC2CCOCC2)c(CO)c1 | 181000 pM |
| CCc1ccc2c(c1)CCC(CC)N2S(=O)(=O)c1ccc(C(O)CC2CCOCC2)c(CO)c1 (stereo not shown) | 201000 pM |
| [2H]C([2H])(O)c1cc(S(=O)(=O)N2c3ccc(C(C)C)cc3CCC2CC)ccc1OCC1CCOCC1 (stereo not shown) | 11500 pM |
| CCc1ccc2c(c1)CC[C@H](C)N2S(=O)(=O)c1ccc(OCC2CCOCC2)c(CO)c1 | 25000 pM |
| CCc1ccc2c(c1)CCC(CC)N2S(=O)(=O)c1ccc(C(O)CN2CCOCC2)c(CO)c1 (stereo not shown) | 595000 pM |
| CCc1ccc2c(c1)CCC(C1CC1)N2S(=O)(=O)c1ccc(OCC2CCOCC2)c(CO)c1 (stereo not shown) | 7000 pM |
| CCC1CCc2cc(C(C)C)ccc2N1S(=O)(=O)c1ccc(OCC2CCOCC2)c(CO)c1 (stereo not shown) | 3500 pM |
| CC(C)c1ccc2c(c1)CCC(C)N2S(=O)(=O)c1ccc(OCC2CCOCC2)c(CO)c1 (stereo not shown) | 14900 pM |
| CC[C@@H]1CCc2cc(C(C)(F)F)ccc2N1S(=O)(=O)c1ccc(OCC2CCOCC2)c(CO)c1 | 10000 pM |
| CC[C@@H]1CCc2cc(C(C)C)ccc2N1S(=O)(=O)c1ccc(OCC2CCOCC2)c(CO)c1 | 48000 pM |
| CCC1CCc2cc(C(C)(C)O)ccc2N1S(=O)(=O)c1ccc(OCC2CCOCC2)c(CO)c1 (stereo not shown) | 1.4e+06 pM |
| CCc1ccc2c(c1F)CCC(CC)N2S(=O)(=O)c1ccc(OCC2CCOCC2)c(CO)c1 (stereo not shown) | 13600 pM |
| CC(C)c1ccc2c(c1)CCC(C1CC1)N2S(=O)(=O)c1ccc(OCC2CCOCC2)c(CO)c1 (stereo not shown) | 6600 pM |
| CCc1ccc2c(c1)CC(C)CN2S(=O)(=O)c1ccc(OCC2CCOCC2)c(CO)c1 (stereo not shown) | 36000 pM |
| CCc1ccc2c(c1)CCCN2S(=O)(=O)c1ccc(OCC2CCOCC2)c(CO)c1 | 858000 pM |

| Structure (SMILES) | EC50 |
| --- | --- |
| CCC1CCc2cc(C(C)(C)C)ccc2N1S(=O)(=O)c1ccc(OCC2CCOCC2)c(CO)c1 (stereo not shown) | 70200 pM |
| CC[C@@H]1CCc2cc(C3CCC3)ccc2N1S(=O)(=O)c1ccc(OCC2CCOCC2)c(CO)c1 | 5200 pM |
| CCc1ccc2c(c1)CCC(CC)N2S(=O)(=O)c1ccc(OCC2CCS(=O)(=O)CC2)c(CO)c1 (stereo not shown) | 146000 pM |
| CCc1ccc2c(c1)CC[C@@H](C)N2S(=O)(=O)c1ccc(OCC2CCOCC2)c(CO)c1 | 218000 pM |
| CC1CCc2cc(C3CC3)ccc2N1S(=O)(=O)c1ccc(OCC2CCOCC2)c(CO)c1 (stereo not shown) | 20700 pM |
| CCc1ccc2c(c1)CC(C)N2S(=O)(=O)c1ccc(OCC2CCOCC2)c(CO)c1 (stereo not shown) | 1.61e+06 pM |
| CCc1ccc2c(c1)C(C)CCN2S(=O)(=O)c1ccc(OCC2CCOCC2)c(CO)c1 (stereo not shown) | 655000 pM |
| CCc1ccc2c(c1)CC[C@@H](CC)N2S(=O)(=O)c1ccc(OCC2CCOCC2)c(CO)c1 | 4200 pM |
| CCc1ccc2c(c1)C(C)CN2S(=O)(=O)c1ccc(OCC2CCOCC2)c(CO)c1 (stereo not shown) | 1.4e+06 pM |
| CC1CCc2cc(C(F)(F)F)ccc2N1S(=O)(=O)c1ccc(OCC2CCOCC2)c(CO)c1 (stereo not shown) | 15000 pM |
| CCc1ccc2c(c1)CCC(C)(C)N2S(=O)(=O)c1ccc(OCC2CCOCC2)c(CO)c1 | 310000 pM |
| C=Cc1ccc2c(c1)CCC(CC)N2S(=O)(=O)c1ccc(OCC2CCOCC2)c(CO)c1 (stereo not shown) | 35500 pM |
| CCc1ccc2c(c1)CCC(C(C)C)N2S(=O)(=O)c1ccc(OCC2CCOCC2)c(CO)c1 (stereo not shown) | 12400 pM |
| C=C(C)c1ccc2c(c1)CCC(CC)N2S(=O)(=O)c1ccc(OCC2CCOCC2)c(CO)c1 (stereo not shown) | 12000 pM |
| C[C@H]1CCc2ccc(C(F)(F)F)cc2N1S(=O)(=O)c1ccc(OCC2CCOCC2)c(CO)c1 | 330000 pM |
| CC[C@H]1CCc2cc(C(F)(F)F)ccc2N1S(=O)(=O)c1ccc(OCC2CCOCC2)c(CO)c1 | 71000 pM |
| CCC1CCc2cc(C3CCC3)ccc2N1S(=O)(=O)c1ccc(OCC2CCOCC2)c(CO)c1 (stereo not shown) | 5500 pM |
| Cc1cc(C)c2c(c1)CCC(C1CC1)N2S(=O)(=O)c1ccc(OCC2CCOCC2)c(CO)c1 (stereo not shown) | 18000 pM |
| CCc1ccc2c(c1)CCN2S(=O)(=O)c1ccc(OCC2CCOCC2)c(CO)c1 | 2.63e+06 pM |
| CCc1ccc2c(c1)CC[C@@H](C1CC1)N2S(=O)(=O)c1ccc(OCC2CCOCC2)c(CO)c1 | 3200 pM |

| Structure (SMILES) | EC50 |
| --- | --- |
| CCC1CCc2cc(C(F)(F)F)ccc2N1S(=O)(=O)c1ccc(OCC2CCOCC2)c(CO)c1 (stereo not shown) | 21100 pM |
| C[C@H]1CCc2cc(CC(F)(F)F)ccc2N1S(=O)(=O)c1ccc(OCC2CCOCC2)c(CO)c1 | 316000 pM |
| CCc1ccc2c(c1)C[C@@H](O)[C@H](C)N2S(=O)(=O)c1ccc(OCC2CCOCC2)c(CO)c1 | 803000 pM |
| CCc1ccc2c(c1)CCC(CC)N2S(=O)(=O)c1ccc(OCC2CCOCC2)c(S(C)(=O)=O)c1 (stereo not shown) | 1.86e+06 pM |
| CCc1ccc2c(c1)CCC(C)N2S(=O)(=O)c1ccc(OCC2CCOCC2)c(CO)c1 (stereo not shown) | 23600 pM |
| CC[C@@H]1CCc2cc(C(F)(F)F)ccc2N1S(=O)(=O)c1ccc(OCC2CCOCC2)c(CO)c1 | 5400 pM |
| CCC1CCc2cc(CC(F)(F)F)ccc2N1S(=O)(=O)c1ccc(OCC2CCOCC2)c(CO)c1 (stereo not shown) | 23000 pM |
| CCc1ccc2c(c1)N(S(=O)(=O)c1ccc(OCC3CCOCC3)c(CO)c1)[C@@H](C)CC2 | 223000 pM |
| CCc1ccc2c(c1)CCC(CC)N2S(=O)(=O)c1ccc(OCC2CCOCC2)c(S(N)(=O)=O)c1 (stereo not shown) | 576000 pM |
| CCc1ccc2c(c1)CCC(CC(C)C)N2S(=O)(=O)c1ccc(OCC2CCOCC2)c(CO)c1 (stereo not shown) | 21000 pM |
| CCc1cc(F)c2c(c1)CC[C@H](C)N2S(=O)(=O)c1ccc(OCC2CCOCC2)c(CO)c1 | 151000 pM |
| CCc1ccc2c(c1)CCC(CC)N2S(=O)(=O)c1ccc(C(CO)N2CCOCC2)c(CO)c1 (stereo not shown) | 3.12e+06 pM |
| CCc1ccc2c(c1)CC[C@H](CC)N2S(=O)(=O)c1ccc(OCC2CCOCC2)c(CO)c1 | 34900 pM |
| CC[C@H]1CCc2cc(C(C)C)ccc2N1S(=O)(=O)c1ccc(OCC2CCOCC2)c(CO)c1 | 6800 pM |
| CCc1ccc2c(c1)CCC(C(F)(F)F)N2S(=O)(=O)c1ccc(OCC2CCOCC2)c(CO)c1 (stereo not shown) | 23000 pM |
| CCc1ccc2c(c1)CCC(CC)N2S(=O)(=O)c1ccc(OCC2CCOCC2)c(CO)n1 (stereo not shown) | 212000 pM |
| CCC1CCc2cc(C(C)(F)F)ccc2N1S(=O)(=O)c1ccc(OCC2CCOCC2)c(CO)c1 (stereo not shown) | 15600 pM |
| CCc1cc2c(cc1F)N(S(=O)(=O)c1ccc(OCC3CCOCC3)c(CO)c1)[C@@H](C)CC2 | 96500 pM |
